Data as given in patent US12441679B2, “Acrylamide-substituted indane compounds and therapeutic use thereof” (Sanofi, priority 2020, dated 2025).

The compounds below were run on YAP1-TEAD and TAZ-TEAD activity (TEAD responsive promoter element) (assay: TEAD-Luciferase Reporter Assay (8XGTIIC-Luciferase construct stably integrated in tumor cell lines)). Details: Homo sapiens; 8XGTIIC-Luciferase reporter in tumor cell lines, 48 hrs compound treatment, 10 doses 1-10000 nM.
Type: cell-based, human
Description: TEAD-Luciferase Reporter Assay
Luciferase-based gene reporter assays were used, employing the TEAD responsive promoter element that are stably integrated to different human tumor cell lines in order to monitor YAP1-TEAD and TAZ-TEAD activity and to study YAP1/TAZ-TEAD activity modulation by small molecule compounds. Luciferase-based gene reporter assays employing the GAPDH promoter element and stably integrated to different human tumor cell lines are used as counter screen control cell lines.
Tumor cell lines with stable integration of the 8XGTIIC-Luciferase construct (Dupont et al., Nature 2011) or the GAPDH-Luciferase control plasmid, are seeded in culture medium in 96-well plates at a density of 8000 cells/well. Following an overnight incubation in a 37° C., 5% CO2 growth chamber, cells are treated with compounds described above at 10 doses ranging between 1 and 10000 nM for 48 hrs. After compound incubation, cells are lysed with Bright-Glo Luciferase Assay System (Promega E2620) and luciferase activity is measured using a luminescent plate reader.
The inhibitory activity of the compounds with respect to luciferase activity is given by the concentration which inhibits 50% of activity of non-treated cells. IC50s are determined with a nonlinear regression model on XLfit software analysis (IDBS, UK).

Row | SMILES | IC50 [nM]
1 | C=CC(=O)Nc1ccc2c(c1)C(OC1CCC(F)(F)CC1)CC2 (stereo not drawn) [Example 35, N-(3-((4,4-difluorocyclohexyl)oxy)-2,3-dihydro-1H-inden-5-yl)acrylamide] | 583
2 | C=CC(=O)Nc1ccc2c(c1)C(OCCCC(F)F)CC2 (stereo not drawn) [Example 73, N-(3-(4,4-difluorobutoxy)-2,3-dihydro-1H-inden-5-yl)acrylamide] | 1310
3 | C=CC(=O)Nc1ccc2c(c1)CCC2Nc1cccc(F)c1 (stereo not drawn) [Example 8, N-(1-((3-fluorophenyl)amino)-2,3-dihydro-1H-inden-5-yl)acrylamide] | 132
4 | C=CC(=O)Nc1ccc2c(c1)C[C@@H](Nc1cccc(C(F)(F)F)c1)C2 (single isomer, unassigned) [Example 51] | 4330
5 | C=CC(=O)Nc1ccc2c(c1)C(Nc1ccc(C(F)(F)F)cc1)CC2 (stereo not drawn) [Example 12, N-(3-((4-(trifluoromethyl)phenyl)amino)-2,3-dihydro-1H-inden-5-yl)acrylamide] | 55

Next, values leading:

Row | IC50 [nM] | SMILES
6 | 142 | C=CC(=O)N(C)c1ccc2c(c1)CCC2Nc1cccc(C(F)(F)F)c1 (stereo not drawn) [Example 4, N-methyl-N-(1-((3-(trifluoromethyl)phenyl)amino)-2,3-dihydro-1H-inden-5-yl)acrylamide]
7 | 87 | C=CC(=O)Nc1ccc2c(c1)C(Oc1cccc(F)c1)CC2 (stereo not drawn) [Example 41, N-(3-(3-fluorophenoxy)-2,3-dihydro-1H-inden-5-yl)acrylamide]
8 | 56 | C=CC(=O)Nc1ccc2c(c1)C(Oc1ccc(Cl)cc1)CC2 (stereo not drawn) [Example 77, N-(3-(4-chlorophenoxy)-2,3-dihydro-1H-inden-5-yl)acrylamide]
9 | 5260 | C=CC(=O)Nc1ccc2c(c1)C(NC1CCC(F)(F)CC1)CC2 (stereo not drawn) [Example 70, N-(3-((4,4-difluorocyclohexyl)amino)-2,3-dihydro-1H-inden-5-yl)acrylamide]
